Patent publication US8492388B2 (priority 2008, dated 2013)

Test: Measurement of logP values by HPLC on reversed phase columns (EEC directive 79/831 Annex V.A8)
Conditions: not given
Compound `COC(=O)c1cccc(CCl)c1` [3-(chloromethyl)benzoate, methyl 3-(chloromethyl)benzoate] has a chromatographic logP of 2.64.
`CN(C)c1cccc(C(=NOCc2cccc(NC(=O)C(F)(F)Oc3ccccc3)n2)c2nnnn2C)c1` [Example 30, N-(6-{[({[3-(dimethylamino)phenyl](1-methyl-1H-tetrazol-5-yl)methylene}amino)oxy]methyl}pyridin-2-yl)-2,2-difluoro-2-phenoxyacetamide] gave a chromatographic logP of 4.14.
Compound `Cn1nnnc1C(=O)c1cccc(OC(F)(F)F)c1` [(1-methyl-1H-tetrazol-5-yl)[3-(trifluoromethoxy)phenyl]methanone] has a chromatographic logP of 2.96.
In the case of `Cn1nnnc1C(=NOCc1csc(NC(=O)COc2ccccc2)n1)c1cccc(OC(F)(F)F)c1` [Example 53, N-(4-{[({(1-methyl-1H-tetrazol-5-yl)[3-(trifluoromethoxy)phenyl]methylene}amino)oxy]methyl}-1,3-thiazol-2-yl)-2-phenoxyacetamide], the chromatographic logP is reported as 3.99.
With `Cn1nnnc1C(=NOCc1csc(N)n1)c1cccc(OC(F)(F)F)c1` [Example 46, 4-{[({(1-methyl-1H-tetrazol-5-yl)[3-(trifluoromethoxy)phenyl]methylene}amino)oxy]methyl}-1,3-thiazol-2-amine] the chromatographic logP was 2.1.
For `COCc1cccc(C(=O)N(C)OC)c1` [N-methoxy-3-(methoxymethyl)-N-methylbenzamide], the chromatographic logP was 1.43.
`Cn1nnnc1C(=NO)c1cccc(OC(F)(F)F)c1` [N-hydroxy-1-(1-methyl-1H-tetrazol-5-yl)-1-[3-(trifluoromethoxy)phenyl]methanimine] gave a chromatographic logP of 2.37.
For `COCc1cccc(C(=O)O)c1` [3-(methoxymethyl)benzoic acid], the chromatographic logP was 1.33.
`COCc1cccc(C(=NO)c2nnnn2C)c1` [N-hydroxy-1-[3-(methoxymethyl)phenyl]-1-(1-methyl-1H-tetrazol-5-yl)methanimine] gave a chromatographic logP of 1.54.
`COCc1cccc(C(=O)c2nnnn2C)c1` [[3-(methoxymethyl)phenyl](1-methyl-1H-tetrazol-5-yl)methanone] showed a chromatographic logP of 2.01.
`COCc1cccc(C(=NOCc2cccc(NC(=O)OC(C)(C)C)n2)c2nnnn2C)c1` [Example 32, tert-butyl (6-{[({[3-(methoxymethyl)phenyl](1-methyl-1H-tetrazol-5-yl)methylene}amino)oxy]methyl}pyridin-2-yl)carbamate] showed a chromatographic logP of 3.71.
With `CON(C)C(=O)c1cccc(OC(F)(F)F)c1` [N-methoxy-N-methyl-3-(trifluoromethoxy)benzamide] the chromatographic logP was 2.41.

Same assay, conditions: HPLC reversed phase, pH 2,7, 0.1% formic acid in water / acetonitrile gradient
For `C=CCCOC(=O)Nc1nc(CON=C(c2cccc(SC)c2)c2nnnn2C)cs1` [Example 21], the logp was 3.64.
For `C=CCCOC(=O)Nc1cccc(CON=C(c2cccc(N(C)C)c2)c2nnnn2C)n1` [Example 24], the logp was 3.64.
With `C#CCCOC(=O)Nc1cccc(CON=C(c2cccc(N(C)C)c2)c2nnnn2C)n1` [Example 23] the logp was 3.21.
With `CON(C)C(=O)Nc1cccc(CON=C(c2cccc(N(C)C)c2)c2nnnn2C)n1` [Example 31] the logp was 2.71.
In the case of `C=CCCOC(=O)Nc1cccc(CON=C(c2cccc(OC(F)(F)F)c2)c2nnnn2C)n1` [Example 8], the logp is reported as 4.2.
`CCCCCOC(=O)Nc1cccc(CON=C(c2cccc(COC)c2)c2nnnn2C)n1` [Example 38] showed a logp of 4.18.
In the case of `Cn1nnnc1C(=NOCc1cccc(N)n1)c1cccc(OC(F)(F)F)c1` [Example 5], the logp is reported as 1.69.
In the case of `CC#CCOC(=O)Nc1cccc(CON=C(c2cccc(COC)c2)c2nnnn2C)n1` [Example 33], the logp is reported as 3.21.

Same assay, conditions: pH 2.7
For `CN(C)c1cccc(C(=NOCc2cccc(NC(=O)C(F)(F)Oc3ccccc3)n2)c2nnnn2C)c1` [Example 30, N-(6-{[({[3-(dimethylamino)phenyl](1-methyl-1H-tetrazol-5-yl)methylene}amino)oxy]methyl}pyridin-2-yl)-2,2-difluoro-2-phenoxyacetamide], the chromatographic logP was 4.14.
For `CN(C)c1cccc(C(=NOCc2cccc(N)n2)c2nnnn2C)c1` [Example 22, 6-{[({[3-(dimethylamino)phenyl](1-methyl-1H-tetrazol-5-yl)methylene}amino)oxy]methyl}pyridin-2-amine], the chromatographic logP was 1.19.
In the case of `Cn1nnnc1C(=NOCc1csc(NC(=O)COc2ccccc2)n1)c1cccc(OC(F)(F)F)c1` [Example 53, N-(4-{[({(1-methyl-1H-tetrazol-5-yl)[3-(trifluoromethoxy)phenyl]methylene}amino)oxy]methyl}-1,3-thiazol-2-yl)-2-phenoxyacetamide], the chromatographic logP is reported as 3.99.
Compound `Cn1nnnc1C(=NOCc1csc(N)n1)c1cccc(OC(F)(F)F)c1` [Example 46, 4-{[({(1-methyl-1H-tetrazol-5-yl)[3-(trifluoromethoxy)phenyl]methylene}amino)oxy]methyl}-1,3-thiazol-2-amine] has a chromatographic logP of 2.1.
Work on `COCc1cccc(C(=NOCc2cccc(NC(=O)OC(C)(C)C)n2)c2nnnn2C)c1` [Example 32, tert-butyl (6-{[({[3-(methoxymethyl)phenyl](1-methyl-1H-tetrazol-5-yl)methylene}amino)oxy]methyl}pyridin-2-yl)carbamate] yielded a chromatographic logP of 3.71.
